Measurements: US20040092495A1, “Biguanide derivatives” (priority 2001, published 2004)

Experiments:
[1] = tested on: perfused leg of N5STZ rats; test: Sorption of glucose on the perfused leg of N5STZ rats in absence of insulin; type: in vivo; conditions: perfused back leg of N5STZ rats; for sorption of glucose: compound 10 μg/mL, 8 mmol/L glucose, n = 4
N5STZ rats = test: Antidiabetic activity in N5STZ rats (oral, change in glycaemia); type: in vivo; conditions: four days of treatment, N5STZ diabetic rats, blood sample two hours after final administration
Method: Study of the Antidiabetic Activity in N5STZ Rats
The oral antidiabetic activity of the compounds of the formula (I) was determined on an experimental model of non-insulin-dependent diabetes induced in the rats using steptozotocin.
The model of non-insulin-dependent diabetes is obtained in the rats by means of an injection of steptozotocin on the 5th day after birth.
The diabetic rats used are eight weeks old. The animals are housed, from the day of birth to the day of the experiment, in an animal house at a regulated temperature of 21 to 22° C. and subjected to a fixed cycle of light (from 7 a.m. to 7 p.m.) and darkness (from 7 p.m. to 7 a.m.). Their food consisted of a maintenance diet, and water and food were given “ad libitum”, with the exception of fasting two hours before the tests, during which period the food is removed (post-absorptive state).
The rats are treated orally with the test product for four (D4) days. Two hours after the final administration of the product and 30 minutes after the animals have been anaesthetised with pentobarbital sodium (Nembutal®), a 300 μl blood sample is taken from the end of the tail.
By way of example, results obtained with compound 1 prepared above are collated compared with metformin in the following table.

CN(C)C(=N)NC(=N)N1CCCC1.Cl [Compound 1, Dimethylaminoiminomethylpyrrolidinecarboximidamide Hydrochloride]
sorption of glucose [1]: 116.08 ± 20.63 (n = 4) μmol/g/l
percentage change in the glycaemia on D4 relative to DO (N5STZ rats; 25 mg/kg): −6%
percentage change in the glycaemia on D4 relative to DO (N5STZ rats; 50 mg/kg): −23%
percentage change in the glycaemia on D4 relative to DO (N5STZ rats; 100 mg/kg): −36%

CN(C)C(=N)N=C(N)N [Metformin, metformin]
induction of sorption of glucose by the muscle in absence of insulin (in words) [1]: no effect
sorption of glucose [1]: 32.09 ± 7.25 (n = 4) μmol/g/l
percentage change in the glycaemia on D4 relative to DO (N5STZ rats; 25 mg/kg): −13%
percentage change in the glycaemia on D4 relative to DO (N5STZ rats; 50 mg/kg): −22%
percentage change in the glycaemia on D4 relative to DO (N5STZ rats; 100 mg/kg): −21%
